Reference: US9561215B2, “BAX-activating cancer therapeutics” (The University of Louisville Research Foundation Inc., priority 2014, dated 2017)

Key:
[1] = tested on: A549 cells with Bax shRNA or control shRNA vector; test: Cell death in A549 cells with reduced Bax expression or control shRNA; assay type: cell-based, human; details: 48 hour incubation
Method: (§1) Cell lines: Bak^−/−Bax^−/− murine embryonic fibroblast (MEF) cells expressing the empty vector, Bak or Bax were cultured as described previously. Human non-small cell lung carcinoma A549 and human pancreatic carcinoma Panc-1 were purchased from ATCC (Manassas, Va.). Untransformed and transformed MEF cells were kindly provided by Dr. Wei-Xing Zong. Bax^+/− and Bax^−/− HCT116 cells were obtained from Drs. Bert Vogelstein and Kenneth Kinzler. All cells were cultured at 37° C. in a 5% CO2 incubator as described previously (42). To generate A549 cells with reduced Bax expression or vector control, cells were first infected by Bax shRNA lentiviral particles or control shRNA lentiviral particles (Santa Cruz). Stable cells were obtained by culturing cells in the medium with 10 μg/ml puromycin.
(§2) Cell death analysis and Chou-Talalay synergism assay: Cell viability was measured by propidium iodide exclusion using flow cytometry (FACSCalibur, Becton Dickinson) as described previously. […] IC50 of compound 106, carboplatin, and ABT-7373 on a tumor cell line was first determined. […] After incubation for the indicated time, cell viability was examined and Fa was calculated as the ratio between the cell death levels of drug-treated cells and those of untreated control cells. Combination index (CI) was determined by the CompuSyn software (Biosoft, Cambridge, UK). […]

[2] = tested on: Bax^+/− and Bax^−/− HCT116 cells; test: Cell death in HCT116 cells with or without Bax expression; assay type: cell-based, human; details: 48 hour incubation
Method: as §1, §2

[3] = tested on: Bak^−/−Bax^−/− MEF cells stably re-expressing Bax, Bak, or the empty vector; test: Cell death by propidium iodide exclusion in MEF cells re-expressing Bax or Bak; assay type: cell-based; details: for rank by activity to induce Bax-dependent apoptosis: rank among the six Bax activator compounds
Method: as §1
Cell death analysis and Chou-Talalay synergism assay: Cell viability was measured by propidium iodide exclusion using flow cytometry (FACSCalibur, Becton Dickinson) as described previously. The synergistic effect between compound 106 and carboplatin or ABT-737 on cell viability was determined by Chou-Talalay median dose effect assay. IC50 of compound 106, carboplatin, and ABT-7373 on a tumor cell line was first determined. Different combinations of drugs at a fixed ratio higher or lower than their IC50 values were added to cells. After incubation for the indicated time, cell viability was examined and Fa was calculated as the ratio between the cell death levels of drug-treated cells and those of untreated control cells. Combination index (CI) was determined by the CompuSyn software (Biosoft, Cambridge, UK).
The inventors tested candidate agents by first determining whether cytotoxicity was dependent on Bax but not on Bak. Bax^−/−Bak^−/− murine embryonic fibroblast (MEF) cell lines stably re-expressing only Bax or Bak were established (FIG. 3).

Bax = Bax (Homo sapiens, UniProt Q07812); details: non-canonical BH3 interaction site; cited from earlier work
Chain of Bax (Q07812 whole entry, species assumed): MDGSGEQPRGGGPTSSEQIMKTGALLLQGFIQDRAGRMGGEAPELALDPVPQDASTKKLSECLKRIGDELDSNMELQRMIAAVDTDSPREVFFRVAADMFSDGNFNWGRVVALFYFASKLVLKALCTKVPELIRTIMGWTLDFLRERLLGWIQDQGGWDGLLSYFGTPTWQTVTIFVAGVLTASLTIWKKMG

A549 cells = test: Chou-Talalay synergism assay in A549 cells; assay type: cell-based, human; details: compound 106 (80-240 μM) with carboplatin (80-240 μM), constant ratio, 48 hours
Method: (§3) Cell death analysis and Chou-Talalay synergism assay: Cell viability was measured by propidium iodide exclusion using flow cytometry (FACSCalibur, Becton Dickinson) as described previously. […] IC50 of compound 106, carboplatin, and ABT-7373 on a tumor cell line was first determined. […] After incubation for the indicated time, cell viability was examined and Fa was calculated as the ratio between the cell death levels of drug-treated cells and those of untreated control cells. Combination index (CI) was determined by the CompuSyn software (Biosoft, Cambridge, UK).
(§4) To explore the potential of compound 106 functioning in combination chemotherapy, the inventors investigated whether compound 106 sensitizes tumor cells to die following simultaneous treatment with a chemotherapeutic drug. Carboplatin is currently used to treat non-small-cell lung cancer and human pancreatic cancer. To investigate whether the cytotoxic effects of compound 106 and carboplatin on human tumor cells were synergistic, the inventors carried out median-effect analysis using the Chou-Talalay method. After 48 hours of treatment, the cell death levels of A549 and PANC-1 cells treated with various concentrations of compound 106 and carboplatin at a constant dose ratio were measured, and the combination index (CI) values were determined.

PANC-1 cells = test: Chou-Talalay synergism assay in PANC-1 cells; assay type: cell-based, human; details: compound 106 (3.3-240 μM) with carboplatin (3.3-240 μM), constant ratio, 48 hours
Method: as §3, §4

[4] = tested on: anti-apoptotic Bcl-2 proteins, including Bcl-2, Bcl-xL, and Bcl-w; details: cited from earlier work

## CC[C@]1(O)C[C@H]2CN(CCc3c([nH]c4ccccc34)[C@@](C(=O)OC)(c3cc4c(cc3OC)N(C=O)[C@H]3[C@@](O)(C(=O)OC)[C@H](OC(C)=O)[C@]5(CC)C=CCN6CC[C@]43[C@@H]65)C2)C1 [vincristine]
[1]
  cell death, reduced Bax expression versus control shRNA: Decrease in Bax expression did not affect killing activities
[2]
  cell death, Bax expressing versus Bax lacking HCT116 cells: Lack of Bax expression in HCT116 cells did not affect killing activities

## N.N.O=C([O-])C1(C(=O)[O-])CCC1.[Pt+2] [carboplatin, cis-Diammine (1,1-cyclobutanedicarboxylato)platinum(II)]
[1]
  cell death, reduced Bax expression versus control shRNA: Decrease in Bax expression did not affect killing activities
[2]
  cell death, Bax expressing versus Bax lacking HCT116 cells: Lack of Bax expression in HCT116 cells did not affect killing activities

## CSc1ccc(C2N=C3NCN(Cc4cccnc4)CN3c3nc4ccccc4n32)cc1 (stereo not drawn) [ZINC 13638227, 6-(4-(methylthio)phenyl)-2-(pyridin-3-ylmethyl)-2,3,4,6-tetrahydro-1H-benzo[4,5]imidazo[1,2-a][1,3,5]triazino[1,2-c][1,3,5]triazine]
[3]
  rank by activity to induce Bax-dependent apoptosis: 3

## CC(C)CN1CC(OCc2cccnc2)CN(C(=O)Cc2ccc3c(c2)OCO3)CC1=O (stereo not drawn) [ZINC14531256, 4-(1,3-benzodioxol-5-ylacetyl)-1-isobutyl-6-(3-pyridinylmethoxy)-1,4-diazepan-2-one]
[3]
  rank by activity to induce Bax-dependent apoptosis: 6

## COc1ccccc1-c1nc2cc(N)cc(C(=O)NC3CCCN(Cc4ccccc4)C3)c2n1C (stereo not drawn) [ZINC 12150973, 5-amino-N-(1-benzyl-3-piperidinyl)-2-(2-methoxyphenyl)-1-methyl-1H-benzimidazole-7-carboxamide]
[3]
  rank by activity to induce Bax-dependent apoptosis: 4

## COc1ccccc1N1CCN(Cn2nc(-c3ccc(F)cc3)n(CC3CCCO3)c2=S)CC1 (stereo not drawn) [ZINC16076241, 5-(4-fluorophenyl)-2-[[4-(2-methoxyphenyl)piperazin-1-yl]methyl]-4-(oxolan-2-ylmethyl)-1,2,4-triazole-3-thione]
[3]
  rank by activity to induce Bax-dependent apoptosis: 5

## CCn1nc(C)c(CN2CCCC(N3CCN(c4ccc(OC)cc4)CC3)C2)c1C (stereo not drawn) [ZINC20110124, 1-{1-[(1-ethyl-3,5-dimethyl-1H-pyrazol-4-yl)methyl]-3-piperidinyl}-4-(4-methoxyphenyl)piperazine]
[3]
  rank by activity to induce Bax-dependent apoptosis: 2

## BAM7
Bax
  Bax binding and activation: directly binds Bax and activates Bax by triggering Bax oligomerization

## COc1cccc(Cn2nc(C(=O)N3CCCC(O)C3)c3c2CCN(Cc2ccc(C)c(C)c2)C3)c1 (stereo not drawn) [compound 106, 1-{[5-(3,4-dimethylbenzyl)-1-(3-methoxybenzyl)-4,5,6,7-tetrahydro-1H-pyrazolo[4,3-c]pyridin-3-yl]carbonyl}-3-piperidinol]
[3]; MEF cell lines re-expressing only Bax or Bak, and Bax−/−Bak−/− MEFs
  cytotoxicity dependent on Bax but not on Bak (test of the 46 candidate agents): exhibited the highest Bax- and dose-dependent cytotoxicity
[3]
  rank by activity to induce Bax-dependent apoptosis: 1
A549 cells
  combination index (CI): smaller than 1
PANC-1 cells
  combination index (CI): smaller than 1

## CN(C)CC[C@H](CSc1ccccc1)Nc1ccc(S(=O)(=O)NC(=O)c2ccc(N3CCN(Cc4ccccc4-c4ccc(Cl)cc4)CC3)cc2)cc1[N+](=O)[O-] [ABT-737]
[4]
  binding affinity: bind with high affinity
